The values that follow are results of earlier work, collected in US20240197637A1, “POLYMERIC MICROPARTICLES FOR THE LOCAL TREATMENT OF CHRONIC INFLAMMATORY DISEASES” (FONDAZIONE ISTITUTO ITALIANO DI TECNOLOGIA, priority 2021, published 2024).

The data set concerns DMM murine model of injury-induced OA.

With `Cc1ccc2c(c1)C1(CCN(CCc3nc(-c4ccccc4)oc3C)CC1)OC(=O)N2` [RS 504393], the pain perception entry (orally and daily administered) is on record as “decreased”. The “severity of structural damage” value (orally and daily administered, early OA stage) is on record as “decreased the severity of structural damage”. Besides, under “prolonged and delayed exposure”, the “cartilage and bone damage” value is recorded as “did not translate in a significant reduction”; the pain result was “alleviating pain”.
